Source: patent publication US4199592A, “Antiinflammatory 4,5-diaryl-2-nitroimidazoles” (E. I. Du Pont de Nemours and Company, priority 1979, dated 1980)
Read-outs that look alike come from different tables or passages of the source.

What was measured:
[1] = system: adjuvant-induced arthritis in rats; test: Established Adjuvant-Induced Arthritis in Rats (A.A.); format: in vivo, Charles River Lewis male rats; conditions: Rattus norvegicus, 24 h, read-out: A.A. ED50% (ED50% decrease from control paw volume)
[2] = system: stretching or writhing syndrome indicative of pain induced by phenylquinone; test: Phenylquinone Writhing Test; format: in vivo, female white mice; conditions: Mus musculus, 0.5 h; oral, fasted mice; at 1/2 hour; read-out: ED50 (effective analgesic dose for 50% of the mice)
Protocol: Phenylquinone Writhing Test
A standard procedure for detecting and comparing the analgesic activity of compounds in this series for which there is good correlation with human efficacy is the standard phenylquinone writhing test modified from Siegmund, et al., Proc. Soc. Exp. Biol. Med. 95, 729 (1957). A test compound suspended in 1% methylcellulose was given orally to fasted (17-21 hours) female white mice, 5-20 animals per double blind test. Aqueous (0.01% phenyl-p-benzoquinone) phenylquinone was injected intraperitoneally at 24 minutes later using 0.20 ml per mouse. […] The effective analgesic dose for 50% of the mice (ED50) was calculated by the moving average method of Thompson, W. R., Bact. Rev. 11, 115-145 (1947); also time of peak action was determined for many of the compounds.

[3] = oral, rats, 7 daily doses by gavage, paw volume of uninjected left hind paw one day after last dose

| SMILES | ED50 [1, 3] | ED50 ([1]; po) | ED50 [2] |
| --- | --- | --- | --- |
| CC(C)Cc1ccc(C(C)C(=O)O)cc1 (centres unmarked) [Ibuprofen, ibuprofen] | 100 mg/kg |  |  |
| CC(=O)Oc1ccccc1C(=O)O [Aspirin, aspirin] |  | 305 mg/kg |  |
| O=[N+]([O-])c1nc(-c2ccc(F)cc2)c(-c2ccc(F)cc2)[nH]1 [Example 1, 4,5-bis(4-Fluorophenyl)-2-nitroimidazole] | 0.6 mg/kg |  | 59 mg/kg |
| COc1ccc(-c2nc([N+](=O)[O-])[nH]c2-c2ccc(OC)cc2)cc1 [Example 2, 4,5-bis(4-Methoxyphenyl)-2-nitroimidazole] | 2.5 mg/kg |  | < 130 mg/kg |
| CCCCC1C(=O)N(c2ccccc2)N(c2ccccc2)C1=O [Phenylbutazone, phenylbutazone] | 10 mg/kg |  |  |
| COc1ccc2c(c1)c(CC(=O)O)c(C)n2C(=O)c1ccc(Cl)cc1 [Indomethacin, indomethacin] |  | 0.3 mg/kg |  |
